Results as given in patent US20260138969A1 (Korea Research Institute of Chemical Technology, priority 2023, published 2026).

Key:
[1] = biological target: T1, recombinant human ASK1 protein (Homo sapiens, UniProt Q99683); assay: Evaluation of ASK1 inhibition activity ([gamma-33P]-ATP, scintillation counting); format: biochemical; details: for remaining activity at 0.5 µM: activity of group without compound set at 100%, read-out: Remaining kinase activity (%) at 0.5 uM
T1 sequence (Q99683 1-1374): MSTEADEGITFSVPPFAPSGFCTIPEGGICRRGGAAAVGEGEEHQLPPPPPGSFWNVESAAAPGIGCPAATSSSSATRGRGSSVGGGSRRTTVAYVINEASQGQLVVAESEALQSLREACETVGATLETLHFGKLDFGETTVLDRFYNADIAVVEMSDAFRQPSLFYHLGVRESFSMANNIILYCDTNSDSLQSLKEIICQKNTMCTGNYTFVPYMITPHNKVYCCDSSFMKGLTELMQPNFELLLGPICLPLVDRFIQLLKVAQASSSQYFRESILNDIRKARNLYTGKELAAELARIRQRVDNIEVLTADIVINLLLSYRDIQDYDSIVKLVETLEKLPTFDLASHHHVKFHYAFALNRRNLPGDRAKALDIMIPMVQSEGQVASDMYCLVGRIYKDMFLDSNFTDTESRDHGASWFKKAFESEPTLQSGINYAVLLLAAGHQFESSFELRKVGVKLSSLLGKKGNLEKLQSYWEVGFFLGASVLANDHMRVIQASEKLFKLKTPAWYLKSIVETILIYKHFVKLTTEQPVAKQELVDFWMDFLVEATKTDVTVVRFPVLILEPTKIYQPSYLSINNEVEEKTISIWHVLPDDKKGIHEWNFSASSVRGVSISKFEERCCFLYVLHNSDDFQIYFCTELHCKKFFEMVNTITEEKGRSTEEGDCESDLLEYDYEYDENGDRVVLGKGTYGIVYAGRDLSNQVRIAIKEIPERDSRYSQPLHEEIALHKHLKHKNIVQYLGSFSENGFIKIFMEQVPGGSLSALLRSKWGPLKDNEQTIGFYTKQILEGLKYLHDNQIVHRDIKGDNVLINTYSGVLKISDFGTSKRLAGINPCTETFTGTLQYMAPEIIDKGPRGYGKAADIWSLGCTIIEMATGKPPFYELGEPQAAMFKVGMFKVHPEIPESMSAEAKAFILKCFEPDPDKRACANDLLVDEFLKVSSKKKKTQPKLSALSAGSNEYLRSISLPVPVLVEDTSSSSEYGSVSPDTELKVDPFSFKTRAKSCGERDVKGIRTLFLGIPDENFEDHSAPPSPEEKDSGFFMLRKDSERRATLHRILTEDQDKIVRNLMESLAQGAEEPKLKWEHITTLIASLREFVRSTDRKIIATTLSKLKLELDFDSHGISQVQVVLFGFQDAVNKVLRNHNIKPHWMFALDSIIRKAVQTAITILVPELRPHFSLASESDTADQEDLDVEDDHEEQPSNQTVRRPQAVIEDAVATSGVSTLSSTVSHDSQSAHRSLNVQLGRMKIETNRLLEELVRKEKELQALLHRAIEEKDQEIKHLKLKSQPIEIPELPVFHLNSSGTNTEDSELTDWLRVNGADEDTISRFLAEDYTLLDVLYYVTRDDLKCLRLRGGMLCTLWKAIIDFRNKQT
Protocol: The recombinant human ASK1 protein was initiated by adding a mixture of Mg/ATP to the reaction solution (8 mM MOPS PH 7.0, 0.2 mM EDTA, 0.33 mg/mL myelin basic protein, 10 mM Mg Acetate and [gamma-33P]-ATP), and the reaction was terminated by adding 0.5% phosphoric acid after 40 min at room temperature.

[2] = MDR-MDCK cell membrane permeability assessment; format: in vitro ADME; details: dog; MDCK-MDR1 monolayer, 37° C., 2 hours
Protocol: (§1) MDCK-MDR1 cells (5×10^5 cells/mL) were incubated on a 24-transwell plate (Corning, NY, USA) for 4 days to measure permeability through a single layer of MDR-MDCK cells. The medium was replaced with a new medium every two days, and the electrical resistance between epithelial tissues (TEER) was measured using a Millicell® ERS-2 Volohmmeter (Merck KGaA, Darmstadt, Germany), and the cell membrane permeability test was performed after confirming that this value was greater than or equal to 300 Ohm.cm^2.
(§2) The apical and basolateral chambers were washed twice each in the order of Hanks' Balanced Salt Solution (HBSS) containing DPBS buffer and 10 mM Hydroxyethyl piperazine Ethane sulfonic acid (HEPES), and in the final washing step, HBSS was filled and maintained at a stable state at 37° C. for 30 minutes. After 30 minutes, the test material was instilled in each chamber and left at 37° C. for 2 hours, and the culture medium of the transferred layer was collected at 30-minute intervals, and the collected amount was supplemented with new HBSS.
(§3) The apparent permeability coefficient (Papp, cm/sec) was calculated using the following formula:
(§4) [formula] • Papp: Apparent permeability • dQ/dt: Permeability of the drug • A: Area of the filter membrane on which the cells are laid • C_0: Initial concentration of the drug
(§5) In addition, the Efflux ratio was calculated as follows: […]

MDR1 = assay: MDR-MDCK cell membrane permeability assessment; format: in vitro ADME; details: dog; MDCK-MDR1 monolayer
Protocol: as §1, §2, §3, §4, §5

[3] = test system: α-Syn transgenic Parkinson's disease mouse model; assay: α-Syn transgenic Parkinson's disease mouse model: microglial reduction (Iba-1); format: in vivo; details: 9 months of age; Memantine 10 mg/kg (G3), G4 2 mg/kg, G5 10 mg/kg, G7 2 mg/kg PO QD
Protocol: The test drug was administered once daily (QD) via oral administration (PO) with a solution of 5 ml/kg for 5 months from 4 months to 9 months of age. Motor behavior tests (beam test) and neurological scores (modified Irwin test) were performed at 4 months (before administration), 7 months, and 9 months. After the final behavioral test, tissue samples were taken. Weight was measured on the same day once a week from 4 months of age until the end of the study.
At 9 months of age, the measurement period ended, the mice were anesthetized, and then the experiment was terminated by cardiac puncture according to IACUC guidelines. Mice were perfused transcardially with 0.9% saline for tissue staining, followed by 4% paraformaldehyde until the mice were fixed. The brains were isolated and immobilized by soaking in 4% paraformaldehyde at 4° C. for 24 hours, followed by 30% sucrose added to PBS containing 0.02% sodium azide and stored at 4° C. for 3 days. Brain samples embedded in OCT compounds were sectioned to a thickness of 20 μm using Leica CM1950 (Leica Microsystems, Germany). The sections were stored at 4° C. in a preservation solution until they were stained by antibodies. […]
To assess microgliosis of the cortex, Iba-1-stained brain tissue was imaged in experimental example 10.5 using an immunofluorescence microscope (Olympus, BZ21) in Olympus. Each marker was manually counted to quantify Iba1.

Row | SMILES | IC50 [1] [nM] | remaining activity at 0.5 µM [1] [%] | Papp A→B at 2 h [2] [×10⁻⁶ cm/s] | Papp B→A at 2 h [2] [×10⁻⁶ cm/s] | efflux ratio at 2 h (MDR1) | number of IBA-1 positive cells in the cerebral cortex [3]
1 | Cc1cc(F)c(C(=O)Nc2cccc(-n3nnc4c3CCCC4)n2)cc1-n1cnc(C2CC2)c1 [Example 3, 5-(4-cyclopropyl-1H-imidazole-1-yl)-2-fluoro-4-methyl-N-(6-(4,5,6,7-tetrahydro-1H-benzo[d][1,2,3]triazole-1-yl)pyridine-2-yl)benzamide] | 73 | 7 | 67.3 ± 12.8 | 74.8 ± 12.3 | 1.13 | 
2 | Cc1cc(F)c(C(=O)Nc2cccc(-n3nnc4c3CCC4)n2)cc1-n1cnc(C2CC2)c1 [Example 2, 5-(4-cyclopropyl-1H-imidazole-1-yl)-N-(6-(5,6-dihydrocyclopenta[d][1,2,3]triazole-1 (4H)-yl)pyridine-2-yl)-2-fluoro-4-methylbenzamide] | 37 | 2 | 93.2 ± 11.2 | 99.1 ± 16.8 | 1.06 | significantly reduced
